Source: the CheMixHub ionic liquid set
± gives the uncertainty stated by the source.

Test: xn = mol fraction of the nth substance listed

CCCC[P+](C)(CCCC)CCCC.COS(=O)(=O)[O-] + CN1CCCC1=O
101 kPa
Conditions | viscosity [mPa·s]
293.15 K, x1 = 0.8086 | 530 ± 220
298.15 K, x1 = 0.056 | 7.6 ± 3
298.15 K, x1 = 0.3764 | 80 ± 32
298.15 K, x1 = 0.7129 | 290 ± 120
298.15 K, x1 = 0.8086 | 370 ± 150
298.15 K, x1 = 1 | 520 ± 210
303.15 K, x1 = 0.0914 | 4.9 ± 2
303.15 K, x1 = 0.1773 | 10.8 ± 4.3
303.15 K, x1 = 0.2318 | 15.5 ± 6.2
303.15 K, x1 = 0.2971 | 25 ± 10
303.15 K, x1 = 0.8086 | 260 ± 110
303.15 K, x1 = 0.9022 | 330 ± 130
303.15 K, x1 = 0.9468 | 350 ± 140
313.15 K, x1 = 0.056 | 1 ± 0.4
313.15 K, x1 = 0.1773 | 4.5 ± 1.8
318.15 K, x1 = 0.2318 | 7.1 ± 2.9
318.15 K, x1 = 0.7129 | 73 ± 29
318.15 K, x1 = 0.8086 | 112 ± 45
323.15 K, x1 = 0.0914 | 2.5 ± 1
323.15 K, x1 = 0.6014 | 30 ± 12

CCCC[P+](C)(CCCC)CCCC.COS(=O)(=O)[O-] + CN(C)C=O
100 kPa
Conditions | viscosity [mPa·s]
293.15 K, x1 = 0.3321 | 27.12 ± 0.71
293.15 K, x1 = 0.4272 | 67.1 ± 1.8
293.15 K, x1 = 0.9362 | 625 ± 55
298.15 K, x1 = 1 | 521 ± 43
303.15 K, x1 = 0.0765 | 2.239 ± 0.064
303.15 K, x1 = 0.8837 | 287 ± 18
308.15 K, x1 = 0.6717 | 99.2 ± 3.4
313.15 K, x1 = 0.0474 | 1.983 ± 0.051
313.15 K, x1 = 1 | 217 ± 12
318.15 K, x1 = 0.2582 | 8.21 ± 0.19
318.15 K, x1 = 0.3321 | 12.45 ± 0.3
323.15 K, x1 = 0.1508 | 3.946 ± 0.088
323.15 K, x1 = 0.8837 | 112.5 ± 4.4

CCCC[n+]1ccn(C)c1.F[P-](F)(F)(F)(F)F + CN(C)C=O
101 kPa
Conditions | viscosity [mPa·s]
293.15 K, x2 = 0.3999 | 39.7 ± 1.1
303.15 K, x2 = 0 | 187.6 ± 4.5
303.15 K, x2 = 0.7963 | 2.42 ± 0.03
303.15 K, x2 = 0.9399 | 1.21 ± 0.02
308.15 K, x2 = 0.3002 | 30.91 ± 0.86
308.15 K, x2 = 0.6 | 7.89 ± 0.22
308.15 K, x2 = 0.7 | 4.71 ± 0.13
313.15 K, x2 = 0.8543 | 1.7 ± 0.02
318.15 K, x2 = 0 | 95.8 ± 2.8
318.15 K, x2 = 0.2 | 31.22 ± 0.86
318.15 K, x2 = 0.6 | 6.16 ± 0.17
323.15 K, x2 = 0.4909 | 8.38 ± 0.19
323.15 K, x2 = 0.6262 | 4.46 ± 0.07

CCCC[n+]1ccn(C)c1.O=S(=O)([N-]S(=O)(=O)C(F)(F)F)C(F)(F)F + CN(C)c1ccccc1
100 kPa, x2 = 0
Conditions | viscosity [mPa·s]
288.15 K | 78.4 ± 3.5
293.15 K | 61.5 ± 2.7
298.15 K | 49.1 ± 2.2
303.15 K | 39.9 ± 1.8
308.15 K | 33.2 ± 1.5
313.15 K | 27.7 ± 1.2
318.15 K | 23.5 ± 1
323.15 K | 20.13 ± 0.89
328.15 K | 17.39 ± 0.77
333.15 K | 15.2 ± 0.67

CCCC[n+]1cccc(C)c1.O=S(=O)([N-]S(=O)(=O)C(F)(F)F)C(F)(F)F + CO
298.15 K, 101.3 kPa
Conditions | electrical conductivity [S/m]
x2 = 0.1004 | 0.338 ± 0.007
x2 = 0.7793 | 1.68 ± 0.034
x2 = 0.9417 | 2.04 ± 0.04
x2 = 0.9589 | 1.83 ± 0.037

CCCC[n+]1ccn(C)c1.O=S(=O)([N-]S(=O)(=O)C(F)(F)F)C(F)(F)F + CO
296.35 K, 100 kPa, frequency 0.01 MHz
Conditions | electrical conductivity [S/m]
x1 = 0.008978 | 1.5 ± 0.06
x1 = 0.01434 | 2.51 ± 0.1
x1 = 0.02356 | 3.1 ± 0.12
x1 = 0.04259 | 4.63 ± 0.19
x1 = 0.08668 | 4.31 ± 0.17

Conditions | electrical conductivity [S/m] | viscosity [mPa·s]
298 K, 100 kPa, x1 = 0.05 | – | 1.017 ± 0.007
298 K, 100 kPa, x1 = 0.1927 | – | 3.181 ± 0.023
298 K, 100 kPa, x1 = 0.2796 | – | 5.166 ± 0.046
298 K, 100 kPa, x1 = 0.6962 | – | 23.01 ± 0.43
298 K, 100 kPa, x1 = 1 | – | 49.7 ± 1.3
298 K, 101 kPa, x2 = 0.3686 | 0.596 ± 0.095 | –
298 K, 101 kPa, x2 = 0.4819 | – | 13.83 ± 0.74
298 K, 101 kPa, x2 = 0.7921 | 2.43 ± 0.1 | –
298.15 K, 100 kPa, x2 = 0.0986 | – | 42.43 ± 0.52
298.15 K, 100 kPa, x2 = 0.7056 | – | 8.01 ± 0.21
303.15 K, 100 kPa, x2 = 0 | – | 40.54 ± 0.51
303.15 K, 100 kPa, x2 = 0.0986 | – | 34.9 ± 0.43
303.15 K, 100 kPa, x2 = 0.4004 | – | 18.48 ± 0.21
318.15 K, 100 kPa, x2 = 0.0986 | – | 20.96 ± 0.27
318.15 K, 100 kPa, x2 = 0.295 | – | 14.8 ± 0.19
318.15 K, 100 kPa, x2 = 0.4923 | – | 9.36 ± 0.22
318.15 K, 100 kPa, x2 = 0.7056 | – | 4.52 ± 0.2
323.15 K, 100 kPa, x2 = 0.7056 | – | 4.24 ± 0.2
323.15 K, 100 kPa, x2 = 0.8978 | – | 1.12 ± 0.2

CCCC[n+]1ccn(C)c1.O=S(=O)([N-]S(=O)(=O)C(F)(F)F)C(F)(F)F + CS(C)=O
100 kPa, x2 = 0
Conditions | viscosity [mPa·s]
303.15 K | 40.54 ± 0.51
318.15 K | 23.75 ± 0.31

CC#N + C[N+](C)(C)CCC[N+]1(C)CCCCC1.N#C[N-]C#N.N#C[N-]C#N
100 kPa, x2 = 0
Conditions | viscosity [mPa·s]
288.15 K | 0.382 ± 0.039
298.15 K | 0.348 ± 0.035
303.15 K | 0.333 ± 0.034
333.15 K | 0.266 ± 0.027

CC#N + C[N+](C)(C)CCC[n+]1ccccc1.N#C[N-]C#N.N#C[N-]C#N
100 kPa, x2 = 0
Conditions | viscosity [mPa·s]
328.15 K | 0.275 ± 0.028
333.15 K | 0.266 ± 0.027

CCCC[n+]1ccccc1.O=S(=O)([N-]S(=O)(=O)C(F)(F)F)C(F)(F)F + Cc1ccccc1
100 kPa
Conditions | viscosity [mPa·s]
293.15 K, x2 = 0.3972 | 22.63 ± 0.48
293.15 K, x2 = 0.6068 | 10 ± 0.21
298.15 K, x2 = 0 | 52.9 ± 1.1
298.15 K, x2 = 0.5025 | 13.64 ± 0.29
303.15 K, x2 = 0.2939 | 21.68 ± 0.46
308.15 K, x2 = 0.3972 | 14.21 ± 0.3
308.15 K, x2 = 0.5025 | 10.54 ± 0.22
313.15 K, x2 = 0.3972 | 12.3 ± 0.26
313.15 K, x2 = 0.6068 | 6.62 ± 0.14

CCCC[n+]1ccn(C)c1.F[P-](F)(F)(F)(F)F + Cc1ccccc1
101 kPa
Conditions | viscosity [mPa·s]
298.15 K, x2 = 0.05 | 172.6 ± 8.8
300.65 K, x2 = 0.2 | 74.9 ± 3.8
300.65 K, x2 = 0.4 | 31.2 ± 1.5
303.15 K, x2 = 0.1 | 73.3 ± 3.4
303.15 K, x2 = 0.3 | 39.5 ± 1.7
305.65 K, x2 = 0.3 | 32.5 ± 1.4
308.15 K, x2 = 0.3 | 27.6 ± 1.2
310.65 K, x2 = 0.1 | 39.8 ± 1.7
313.15 K, x2 = 0.4 | 14.12 ± 0.58
318.15 K, x2 = 0.3 | 17.56 ± 0.72
320.65 K, x2 = 0.3 | 16.21 ± 0.67
320.65 K, x2 = 0.4 | 11.32 ± 0.46
328.15 K, x2 = 0.05 | 27.7 ± 1.1
330.65 K, x2 = 0.05 | 26 ± 1.1
335.65 K, x2 = 0.4 | 8.8 ± 0.36
338.15 K, x2 = 0.05 | 22.02 ± 0.9

CCCCCCCC/C=C\CCCCCCCC(=O)O + Cc1ccccc1 + CC[N+](CC)(CC)CC.[Cl-]
298.2 K, 100 kPa
Conditions | viscosity [mPa·s]
x2 = 0, x3 = 0.25 | 202 ± 10
x2 = 0.2, x3 = 0.2 | 39
x2 = 0.4, x3 = 0.149 | 10.8 ± 1.8
x2 = 0.6, x3 = 0.1 | 3.19 ± 0.76
x2 = 0.8, x3 = 0.05 | 0.91 ± 0.01
